One data set has as its system Granta 519 xenograft. The data set is described as follows: First Granta xenograft study. Format: in vivo. The following applies: polatuzumab ADCs, single dose on Day 7, equal payload dosing levels. From the text: First Granta Xenograft Study Results: Polatuzumab ADCs carrying MMAE conjugated through five different linker types, including vedotin and CT aldehyde-tagged HIPS conjugates were compared for efficacy at equal payload dosing levels in a Granta 519 xenograft study.

A further data set deals with Male Sprague-Dawley rats. Briefly: Multi-dose non-GLP rat toxicology study #1. Format: in vivo. The following applies: polatuzumab ADCs, DAR ~4, i.v. weekly for 4 doses (days 1, 8, 15, 22), equal payload/equal antibody dosing.
Another data set deals with L-82 xenograft. The data set is described as follows: L-82 xenograft with CD30 ADCs. The format is in vivo, NOD/SCID mice. The settings on record: single i.v. dose 3 mg/kg (equal dosing). As to the method: Female NOD/SCID mice were used (8 mice/group) for the study. Animals were inoculated subcutaneously in the flank with 10 million cells in 50% PBS/50% Matrigel. When tumors reached an average volume of 100 mm^3, all animals were treated (Day 0) with a single 10 mg/kg intravenous dose of human IgG. Then, on Day 1, animals were treated with vehicle alone, with unconjugated antibody (3 mg/kg), or with an ADC at 1.5 or 3 mg/kg. The animals were monitored twice weekly for body weight and tumor size. Animals were euthanized when tumors reached 2000 mm^3. ADCs were highly efficacious in this study.

A further data set relates to Karpas 299 xenograft. The data set is described as follows: Karpas 299 xenograft study with anti-CD30 ADCs. The following applies: single i.v. dose 3 mg/kg (equal dosing).

As for polatuzumab vedotin, in the data set on Granta 519 xenograft, the “efficacy (tumor growth inhibition)” value is reported as “longest tumor growth inhibition”. Besides, the “tolerability (white and red blood cell parameters)” value with Male Sprague-Dawley rats is given as “marked myelosuppression”.
“Adcetris: anti-CD30 ADC used as comparator”: the complete responses is recorded as 8 complete responses out of 8 mice/group with L-82 xenograft and 6/6 in the data set on Karpas 299 xenograft.

Values taken from patent publication US20250121090A1, “Antibody-Drug Conjugates and Methods of Use Thereof” (priority 2021, published 2025).
